Experimental data taken from ChEMBL document CHEMBL3046536, “Synthesis, crystal structure, and insecticidal activity of novel N-alkyloxyoxalyl derivatives of 2-arylpyrrole” (2008).

What was measured:
Type in all cases: functional
Tetranychus cinnabarinus [1] = assay: Insecticidal activity against Tetranychus cinnabarinus (carmine spider mite) infested on Sieva bean plants leaves exposed to compound formulation at 50 mg/kg assessed as insect mortality measured 2 days post compound treatment; conditions: 48 h
Tetranychus cinnabarinus [2] = assay: Insecticidal activity against Tetranychus cinnabarinus (carmine spider mite) infested on Sieva bean plants leaves exposed to compound formulation at 100 mg/kg assessed as insect mortality measured 2 days post compound treatment; conditions: 48 h
Tetranychus cinnabarinus [3] = assay: Insecticidal activity against Tetranychus cinnabarinus (carmine spider mite) infested on Sieva bean plants leaves exposed to compound formulation at 200 mg/kg assessed as insect mortality measured 2 days post compound treatment; conditions: 48 h
Mythimna separata [4] = assay: Insecticidal activity against Mythimna separata (Oriental armyworm) fourth-instar larvae infested compound pre-treated corn leaves assessed as insect mortality at 10 mg/kg measured 2 days post compound treatment
Mythimna separata [5] = assay: Insecticidal activity against Mythimna separata (Oriental armyworm) fourth-instar larvae infested compound pre-treated corn leaves assessed as insect mortality at 20 mg/kg measured 2 days post compound treatment
Culex pipiens pallens [6] = assay: Insecticidal activity against Culex pipiens pallens (mosquito) fourth-instar larvae assessed as insect mortality at 0.1 mg/kg measured 2 days post compound treatment; conditions: 48 h
Culex pipiens pallens [7] = assay: Insecticidal activity against Culex pipiens pallens (mosquito) fourth-instar larvae assessed as insect mortality at 0.25 mg/kg measured 2 days post compound treatment; conditions: 48 h
Culex pipiens pallens [8] = assay: Insecticidal activity against Culex pipiens pallens (mosquito) fourth-instar larvae assessed as insect mortality at 0.5 mg/kg measured 2 days post compound treatment; conditions: 48 h
Mythimna separata [9] = assay: Insecticidal activity against Mythimna separata (Oriental armyworm) fourth-instar larvae infested compound pre-treated corn leaves assessed as insect mortality at 5 mg/kg measured 2 days post compound treatment

| Structure (SMILES) | mortality at 50 mg/kg (Tetranychus cinnabarinus [1]) | mortality at 100 mg/kg (Tetranychus cinnabarinus [2]) | mortality at 200 mg/kg (Tetranychus cinnabarinus [3]) | mortality at 10 mg/kg (Mythimna separata [4]) | mortality at 20 mg/kg (Mythimna separata [5]) | mortality at 0.1 mg/kg (Culex pipiens pallens [6]) | mortality at 0.25 mg/kg (Culex pipiens pallens [7]) | mortality at 0.5 mg/kg (Culex pipiens pallens [8]) | mortality at 5 mg/kg (Mythimna separata [9]) |
| --- | --- | --- | --- | --- | --- | --- | --- | --- | --- |
| C/C=C/NC(=O)C(=O)OCn1c(-c2ccc(Cl)cc2)c(C#N)c(Br)c1C(F)(F)F | 89% | 93% | 96% | 15% | 100% | – | – | – | – |
| N#Cc1c(Br)c(C(F)(F)F)n(COC(=O)C(=O)NC2CCCCC2)c1-c1ccc(Cl)cc1 | – | 46% | 76% | 20% | 100% | 20% | 90% | 100% | – |
| N#Cc1c(Br)c(C(F)(F)F)n(COC(=O)C(=O)Nc2ccccc2)c1-c1ccc(Cl)cc1 | 86% | 92% | 99% | 0% | 100% | 0% | 30% | 100% | – |
| Cc1ccccc1NC(=O)C(=O)OCn1c(-c2ccc(Cl)cc2)c(C#N)c(Br)c1C(F)(F)F | – | – | – | 10% | 100% | 100% | 100% | 100% | – |
| Cc1ccc(NC(=O)C(=O)OCn2c(-c3ccc(Cl)cc3)c(C#N)c(Br)c2C(F)(F)F)cc1 | 79% | 90% | 96% | 10% | 100% | 40% | 100% | 100% | – |
| N#Cc1c(Br)c(C(F)(F)F)n(COC(=O)C(=O)Nc2ccccc2Cl)c1-c1ccc(Cl)cc1 | – | 51% | 71% | 30% | 100% | – | – | – | – |
| N#Cc1c(Br)c(C(F)(F)F)n(COC(=O)C(=O)Nc2ccc(Cl)cc2)c1-c1ccc(Cl)cc1 | 84% | 92% | 100% | 20% | 100% | 0% | 10% | 100% | – |
| CC(C)COC(=O)C(=O)OCn1c(-c2ccc(Cl)cc2)c(C#N)c(Br)c1C(F)(F)F | – | – | 100% | 100% | 100% | 10% | 90% | 100% | 0% |
| CCC(C)OC(=O)C(=O)OCn1c(-c2ccc(Cl)cc2)c(C#N)c(Br)c1C(F)(F)F (configuration not stated) | – | – | 100% | 100% | 100% | 10% | 90% | 100% | 0% |
| CC(C)(C)OC(=O)C(=O)OCn1c(-c2ccc(Cl)cc2)c(C#N)c(Br)c1C(F)(F)F | – | – | – | 10% | 100% | – | – | – | – |
| N#Cc1c(Br)c(C(F)(F)F)n(COC(=O)C(=O)OCC2CCCC2)c1-c1ccc(Cl)cc1 | 84% | 90% | 100% | 30% | 100% | 20% | 100% | 100% | – |
| N#Cc1c(Br)c(C(F)(F)F)n(COC(=O)C(=O)OC2CCCCC2)c1-c1ccc(Cl)cc1 | – | – | – | 20% | 100% | 20% | 90% | 100% | – |
| C/C=C/OC(=O)C(=O)OCn1c(-c2ccc(Cl)cc2)c(C#N)c(Br)c1C(F)(F)F | – | – | – | 30% | 100% | 80% | 100% | 100% | – |
| N#Cc1c(Br)c(C(F)(F)F)n(COC(=O)C(=O)OCCF)c1-c1ccc(Cl)cc1 | 83% | 92% | 100% | 10% | 100% | 100% | 100% | 100% | – |
